Measurements taken from patent publication US20260305610A1, “TRIAZOLE COMPOUND, AND PREPARATION METHOD THEREFOR, HERBICIDAL COMPOSITION AND USE THEREOF” (QINGDAO KINGAGROOT CHEMICAL COMPOUND CO., LTD., priority 2023, published 2026).

Tests used:
Format in all cases: in vivo
[1] = test system: Cyperus iria; experiment: Pre-emergence sealing experiment for water-seeding; design: key: 9: completely dead; 8: growth control rate is greater than or equal to 90% and less than 100%; 7: growth control rate is greater than or equal to 80% and less than 90%; 6: growth control rate is greater than or equal to 70% and less than 80%; growth control rate is greater than or equal to 50% and less than 70%; 4: growth control rate is greater than or equal to 30% and less than 50%; growth control rate is greater than or equal to 20% and less than 30%; growth control rate is greater than or equal to 10% and less than 20%; growth control rate is less than 10%; 0: no effect; conditions: 15 days, sulfonylurea-resistant strain
Description: (§1) The activity level criteria for plant damage (i.e., growth control rate) are as follows: • Level 9: completely dead; • Level 8: growth control rate is greater than or equal to 90% and less than 100%; • Level 7: growth control rate is greater than or equal to 80% and less than 90%; • Level 6: growth control rate is greater than or equal to 70% and less than 80%; • Level 5: growth control rate is greater than or equal to 50% and less than 70%; • Level 4: growth control rate is greater than or equal to 30% and less than 50%; • Level 3: growth control rate is greater than or equal to 20% and less than 30%; • Level 2: growth control rate is greater than or equal to 10% and less than 20%; • Level 1: growth control rate is less than 10%; • Level 0: no effect.
(§2) The seeds of Leptochloa chinensis, Digitaria sanguinalis, Monochoria vaginalis (sulfonylurea-resistant strain, collected from Hunan, China), Cyperus iria (sulfonylurea-resistant strain, collected from Jiangsu, China), Huaidao (rice cultivar), etc. were broadcasted on the surface of nutrition bowls filled with soil and fully covered by soil. The prepared nutrition bowls were then placed in a cultivation box, with water filled to a suitable height to keep the soil in the nutrition bowls moist. The test compounds of the present invention were individually dissolved with mixed solutions of acetone and Tween-80, then diluted into solution of a certain concentration using a certain amount of water and sprayed using a spray tower. The plants were placed on a greenhouse seedbed and cultured for 15 days, and the experimental results were then collected. The compounds were applied at 120, 60, 30 and 15 g a.i./ha in triplicate and the results were averaged. The effects were evaluated according to the above activity level criteria.

[2] = test system: Digitaria sanguinalis; experiment: Pre-emergence sealing experiment for water-seeding; design: key: 9: completely dead; 8: growth control rate is greater than or equal to 90% and less than 100%; 7: growth control rate is greater than or equal to 80% and less than 90%; 6: growth control rate is greater than or equal to 70% and less than 80%; growth control rate is greater than or equal to 50% and less than 70%; 4: growth control rate is greater than or equal to 30% and less than 50%; growth control rate is greater than or equal to 20% and less than 30%; growth control rate is greater than or equal to 10% and less than 20%; growth control rate is less than 10%; 0: no effect; conditions: 15 days
Description: as §1, §2

[3] = test system: Leptochloa chinensis; experiment: Pre-emergence sealing experiment for water-seeding; design: key: 9: completely dead; 8: growth control rate is greater than or equal to 90% and less than 100%; 7: growth control rate is greater than or equal to 80% and less than 90%; 6: growth control rate is greater than or equal to 70% and less than 80%; growth control rate is greater than or equal to 50% and less than 70%; 4: growth control rate is greater than or equal to 30% and less than 50%; growth control rate is greater than or equal to 20% and less than 30%; growth control rate is greater than or equal to 10% and less than 20%; growth control rate is less than 10%; 0: no effect; conditions: 15 days
Description: as §1, §2

[4] = test system: Monochoria vaginalis; experiment: Pre-emergence sealing experiment for water-seeding; design: key: 9: completely dead; 8: growth control rate is greater than or equal to 90% and less than 100%; 7: growth control rate is greater than or equal to 80% and less than 90%; 6: growth control rate is greater than or equal to 70% and less than 80%; growth control rate is greater than or equal to 50% and less than 70%; 4: growth control rate is greater than or equal to 30% and less than 50%; growth control rate is greater than or equal to 20% and less than 30%; growth control rate is greater than or equal to 10% and less than 20%; growth control rate is less than 10%; 0: no effect; conditions: 15 days, sulfonylurea-resistant strain
Description: as §1, §2

[5] = test system: monocotyledonous and dicotyledonous weeds; experiment: Pre-emergence test experiment (weeds); design: key: 9: completely dead; 8: growth control rate is greater than or equal to 90% and less than 100%; 7: growth control rate is greater than or equal to 80% and less than 90%; 6: growth control rate is greater than or equal to 70% and less than 80%; growth control rate is greater than or equal to 50% and less than 70%; 4: growth control rate is greater than or equal to 30% and less than 50%; growth control rate is greater than or equal to 20% and less than 30%; growth control rate is greater than or equal to 10% and less than 20%; growth control rate is less than 10%; 0: no effect
[6] = test system: major crops; experiment: Pre-emergence test experiment (crops); design: key: 9: completely dead; 8: growth control rate is greater than or equal to 90% and less than 100%; 7: growth control rate is greater than or equal to 80% and less than 90%; 6: growth control rate is greater than or equal to 70% and less than 80%; growth control rate is greater than or equal to 50% and less than 70%; 4: growth control rate is greater than or equal to 30% and less than 50%; growth control rate is greater than or equal to 20% and less than 30%; growth control rate is greater than or equal to 10% and less than 20%; growth control rate is less than 10%; 0: no effect
[7] = test system: weeds; experiment: Activity assay of compositions: soil sealing treatment (S), fresh weight inhibition and combined effect (Gowing method); conditions: Silene conoidea, 21 d
In short: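 Pre-emergence soil treatment: pre-germinated seeds sown 72 h earlier, sprayed at 450 kg/ha spray volume, 0.3 MPa; compounds in acetone diluted with 0.1% Tween-80. Greenhouse 20-30 °C; fresh weight of surviving weeds measured 21 days after treatment, 4 replicates. Expected mixture inhibition by Gowing formula, E0=X+Y−X*Y/100.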

[8] = test system: Echinochloa crusgalli, Schoenoplectiella juncoides and Bidens tripartita; experiment: Resistance of collected weed seeds to pyrazosulfuron-ethyl; conditions: conventional doses; seeds collected from Heilongjiang, China

Structure (SMILES)	activity level (growth control rate, fresh weight), Cyperus iria ([1]; 15 g a.i./ha)	activity level (growth control rate, fresh weight), Digitaria sanguinalis ([2]; 15 g a.i./ha)	activity level (growth control rate, fresh weight), Leptochloa chinensis ([3]; 15 g a.i./ha)	activity level (growth control rate, fresh weight), Monochoria vaginalis ([4]; 15 g a.i./ha)	Pre-emergence activity level (growth control rate) on Amaranthus retroflexus ([5]; 15 g a.i./ha)	Pre-emergence activity level (growth control rate) on Descurainia sophia ([5]; 15 g a.i./ha)	Pre-emergence activity level (growth control rate) on Digitaria sanguinalis ([5]; 15 g a.i./ha)	Pre-emergence activity level (growth control rate) on Setaria viridis ([5]; 15 g a.i./ha)	Pre-emergence activity level (growth control rate) on Solanum nigrum ([5]; 15 g a.i./ha)	Pre-emergence activity level (growth control rate) on Veronica ([5]; 15 g a.i./ha)	Pre-emergence plant damage level (growth control rate) on Corn ([6]; 15 g a.i./ha)	Pre-emergence plant damage level (growth control rate) on Cotton ([6]; 15 g a.i./ha)	Pre-emergence plant damage level (growth control rate) on Soybean ([6]; 15 g a.i./ha)	Control effect of B applied alone in a corresponding dose (%) ([7]; B 15 g a.i./ha)	Control effect of B applied alone in a corresponding dose (%) ([7]; B 30 g a.i./ha)	other results
CCc1ccc(-n2cnc(C(F)(F)F)n2)nc1Oc1cccc(C(F)(F)F)c1 [Compound 16]	9	9	9	9	9	9	9	9	9	9	0	0	0			
COC(=O)c1ccccc1CS(=O)(=O)NC(=O)Nc1nc(OC)cc(OC)n1 [Bensulfuron-methyl, bensulfuron-methyl, reference compound]														43.7%	60.5%	activity level (growth control rate, fresh weight), Cyperus iria ([1]; 30 g a.i./ha): 5 (growth control rate is greater than or equal to 50% and less than 70%); activity level (growth control rate, fresh weight), Digitaria sanguinalis ([2]; 30 g a.i./ha): 4 (growth control rate is greater than or equal to 30% and less than 50%); activity level (growth control rate, fresh weight), Leptochloa chinensis ([3]; 30 g a.i./ha): 3 (growth control rate is greater than or equal to 20% and less than 30%); activity level (growth control rate, fresh weight), Monochoria vaginalis ([4]; 30 g a.i./ha): 2 (growth control rate is greater than or equal to 10% and less than 20%)
CCOC(=O)c1cnn(C)c1S(=O)(=O)NC(=O)Nc1nc(OC)cc(OC)n1 [pyrazosulfuron-ethyl, reference compound]														50.4%	65.6%	resistance of collected weed seeds [8]: resistant to conventional doses
Cc1ccc(-n2cnc(C(F)(F)F)n2)nc1Oc1cccc(C(F)(F)F)c1 [Compound 8]	9	9	9	9	9	9	9	9	9	9	0	0	0			
COCc1ccc(-n2cnc(C(F)(F)F)n2)nc1Oc1cccc(C(F)(F)F)c1 [Compound 23]	9	9	9	9												Pre-emergence activity level (growth control rate) on Amaranthus retroflexus ([5]; 30 g a.i./ha): 9; Pre-emergence activity level (growth control rate) on Descurainia sophia ([5]; 30 g a.i./ha): 9; Pre-emergence activity level (growth control rate) on Digitaria sanguinalis ([5]; 30 g a.i./ha): 9; Pre-emergence activity level (growth control rate) on Setaria viridis ([5]; 30 g a.i./ha): 8 (growth control rate is greater than or equal to 90% and less than 100%); Pre-emergence activity level (growth control rate) on Solanum nigrum ([5]; 30 g a.i./ha): 9; Pre-emergence activity level (growth control rate) on Veronica ([5]; 30 g a.i./ha): 9; Pre-emergence plant damage level (growth control rate) on Corn ([6]; 30 g a.i./ha): 0; Pre-emergence plant damage level (growth control rate) on Cotton ([6]; 30 g a.i./ha): 0; Pre-emergence plant damage level (growth control rate) on Soybean ([6]; 30 g a.i./ha): 0
